Compound: Cc1ccc(NC(=O)c2ccc(CN3CCN(C)CC3)cc2)cc1Nc1nc(-c2cccnc2)cs1 [Masitinib] + Nc1ncn([C@H]2C[C@H](O)[C@@H](CO)O2)c(=O)n1 [Decitabine] (partner 2 µM)
Experiment: relative viability (nuclei count vs DMSO), 5 days (fraction); higher = more cells survive
Settings: first compound 0.01 µM
How it was run: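 Each reported value is a median over duplicate plates. It expresses relative viability: treated-well nuclei count divided by vehicle-well nuclei count. Lung cancer cell lines in 1536-well plates were dosed by pin tool a day after seeding, alone with one drug or with a fixed anchor-drug dose plus five library-drug doses (not always all listed) in √10 steps, and nuclei were counted after 5 days.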

Row | Cell Line | relative viability
1 | NCI-H838 | 0.446
2 | NCI-H1651 | 0.551
3 | NCI-H1734 | 0.539
4 | LU99A | 0.921
5 | PC-14 | 0.217
6 | NCI-H596 | 0.994
7 | EMC-BAC-2 | 0.771
8 | NCI-H2087 | 0.25
9 | NCI-H647 | 0.369
10 | LK-2 | 0.342
11 | NCI-H2126 | 0.58
12 | NCI-H1793 | 0.486
13 | H3255 | 0.488
14 | LOU-NH91 | 0.797
15 | ChaGo-K-1 | 0.553
16 | NCI-H358 | 0.184

Row | Cell Line | relative viability
17 | NCI-H3122 | 0.528
18 | HOP-62 | 0.22
19 | HCC-44 | 0.665
20 | LXF-289 | 0.332
21 | BEN | 0.727
22 | HARA | 0.474
23 | NCI-H1648 | 0.614
24 | HCC-78 | 0.634
25 | NCI-H441 | 0.214
26 | LCLC-97TM1 | 0.273
27 | A-427 | 0.491
28 | NCI-H460 | 0.307
29 | NCI-H727 | 0.808
30 | NCI-H1755 | 0.612
31 | NCI-H2405 | 0.688

Same assay, conditions: first compound 0.03162 µM

Row | Cell Line | relative viability
32 | NCI-H838 | 0.475
33 | NCI-H1651 | 0.674
34 | NCI-H1734 | 0.485
35 | LU99A | 0.916
36 | PC-14 | 0.202
37 | LCLC-103H | 0.723
38 | NCI-H596 | 0.959
39 | NCI-H2087 | 0.247
40 | HCC-366 | 0.339
41 | NCI-H647 | 0.318
42 | LK-2 | 0.261
43 | NCI-H2126 | 0.499
44 | NCI-H1793 | 0.509
45 | H3255 | 0.67
46 | LOU-NH91 | 0.754
47 | ChaGo-K-1 | 0.526

Row | Cell Line | relative viability
48 | NCI-H358 | 0.195
49 | NCI-H3122 | 0.484
50 | HOP-62 | 0.222
51 | HCC-44 | 0.898
52 | LXF-289 | 0.394
53 | BEN | 0.739
54 | HARA | 0.4
55 | NCI-H1648 | 0.451
56 | HCC-78 | 0.637
57 | NCI-H441 | 0.23
58 | LCLC-97TM1 | 0.233
59 | A-427 | 0.539
60 | NCI-H460 | 0.378
61 | NCI-H727 | 1.03
62 | NCI-H1755 | 0.711
63 | NCI-H2405 | 0.692

Same assay, conditions: first compound 0.1 µM

Row | Cell Line | relative viability
64 | NCI-H838 | 0.432
65 | NCI-H1651 | 0.595
66 | NCI-H1734 | 0.546
67 | LU99A | 0.901
68 | PC-14 | 0.192
69 | LCLC-103H | 0.735
70 | NCI-H596 | 1.11
71 | EMC-BAC-2 | 0.918
72 | NCI-H2087 | 0.32
73 | HCC-366 | 0.369
74 | NCI-H647 | 0.487
75 | LK-2 | 0.366
76 | NCI-H2126 | 0.586
77 | NCI-H1793 | 0.502
78 | H3255 | 0.439
79 | LOU-NH91 | 0.792
80 | ChaGo-K-1 | 0.536

Row | Cell Line | relative viability
81 | NCI-H358 | 0.243
82 | NCI-H3122 | 0.525
83 | HOP-62 | 0.23
84 | HCC-44 | 0.675
85 | LXF-289 | 0.435
86 | BEN | 0.753
87 | HARA | 0.634
88 | NCI-H1648 | 0.568
89 | HCC-78 | 0.605
90 | NCI-H441 | 0.262
91 | LCLC-97TM1 | 0.281
92 | A-427 | 0.567
93 | NCI-H460 | 0.45
94 | NCI-H727 | 0.763
95 | NCI-H1755 | 0.733
96 | NCI-H2405 | 0.762

Same assay, conditions: first compound 0.3162 µM

Row | Cell Line | relative viability
97 | NCI-H838 | 0.445
98 | NCI-H1651 | 0.598
99 | NCI-H1734 | 0.522
100 | LU99A | 0.997
101 | PC-14 | 0.16
102 | LCLC-103H | 0.748
103 | NCI-H596 | 1.14
104 | EMC-BAC-2 | 1.02
105 | NCI-H2087 | 0.223
106 | HCC-366 | 0.389
107 | NCI-H647 | 0.408
108 | LK-2 | 0.249
109 | NCI-H2126 | 0.505
110 | NCI-H1793 | 0.53
111 | H3255 | 0.626
112 | LOU-NH91 | 0.785

Row | Cell Line | relative viability
113 | ChaGo-K-1 | 0.526
114 | NCI-H358 | 0.189
115 | NCI-H3122 | 0.467
116 | HOP-62 | 0.201
117 | HCC-44 | 0.868
118 | LXF-289 | 0.369
119 | BEN | 0.699
120 | HCC-78 | 0.693
121 | NCI-H441 | 0.233
122 | LCLC-97TM1 | 0.167
123 | A-427 | 0.515
124 | NCI-H460 | 0.455
125 | NCI-H727 | 0.729
126 | NCI-H1755 | 0.709
127 | NCI-H2405 | 0.764

Same assay, conditions: first compound 1 µM

Row | Cell Line | relative viability
128 | NCI-H838 | 0.44
129 | NCI-H1651 | 0.584
130 | NCI-H1734 | 0.483
131 | LU99A | 0.986
132 | PC-14 | 0.25
133 | LCLC-103H | 0.711
134 | NCI-H596 | 0.934
135 | EMC-BAC-2 | 0.957
136 | NCI-H2087 | 0.254
137 | HCC-366 | 0.33
138 | NCI-H647 | 0.364
139 | LK-2 | 0.281
140 | NCI-H2126 | 0.567
141 | NCI-H1793 | 0.591
142 | H3255 | 0.534
143 | LOU-NH91 | 0.783
144 | ChaGo-K-1 | 0.534

Row | Cell Line | relative viability
145 | NCI-H358 | 0.192
146 | NCI-H3122 | 0.451
147 | HOP-62 | 0.212
148 | HCC-44 | 1.09
149 | LXF-289 | 0.41
150 | BEN | 0.728
151 | HARA | 0.508
152 | NCI-H1648 | 0.453
153 | HCC-78 | 0.615
154 | NCI-H441 | 0.244
155 | LCLC-97TM1 | 0.225
156 | A-427 | 0.541
157 | NCI-H460 | 0.462
158 | NCI-H727 | 0.781
159 | NCI-H1755 | 0.647
160 | NCI-H2405 | 0.692
